{"source": "patent US20240238460A1", "about": "“IMPROVED PROSTATE-SPECIFIC MEMBRANE ANTIGEN TARGETING RADIOPHARMACEUTICALS AND USES THEREOF” (TELIX PHARMACEUTICALS (INNOVATIONS) PTY LTD, priority 2021, published 2024)", "key": {"LNCaP cells": {"tested_on": "LNCaP cells", "test": "Cellular uptake experiments with 99mTc-labeled ligands in LNCaP cells (with and without 2-PMPA competitor)", "format": "cell-based", "method": "(§1) Phosphate buffer was prepared from 890 mg Na2PO4.2H2O in 9.5 mL water for injection and 0.5 mL 2 m NaOH. After dissolution of the salts, the buffer was sterile filtered, the pH was determined using pH stripes (pH=11.5-12.0). The labeling mixture consisted of 1 μl precursor solution (1 mg/ml in MeCH/H2O 20:50; approx. 1 nmol), 20 μl phosphate buffer, 10 μl […] (TCEP; 28.7 mg/mL in phosphate buffer; 0.1 molar solution) and 4-10 μL pertechnetate in saline (0.9% NaCl; generator cluate) containing an activity of approx. 7.5 MBq. The mixture was filled to 100 μl with saline (0.9% NaCl; 59-65 μL). The pH of the reaction mixture was 8.0-8.5 (tendency towards 8.5). The mixture was heated at 98° C. for 10 minutes. After cooling to room temperature, the mixture was diluted to 1 mL by addition of saline (0.9% NaCl, ligand concentration 1 μm). An aliquot was analyzed by HPLC to determine the radiochemical yield (RCY) (method B, see example 9). Aliquots of the product mixture containing the ^99mTc-labeled ligand were further diluted to a concentration of approx. 100 nM (precursor) in PBS with and without a 10000 fold excess of 2-(Phosphonomethyl)-pentandioic acid, 2-Phosphonomethyl pentanedioic acid (2-PMPA) as competitor.\nCellular uptake experiments were conducted in analogy to previously described procedures (Lindner et al., Doi.: 10.2967/jnumed.118.210443). Briefly, LNCaP cells were seeded in 6-Well plates in RPMI medium containing 20% FBS (two day of incubation prior to the experiment) and grown to a confluency of 70-80%. For the uptake experiment, the medium was removed and the cells were incubated with 1 mL of a 1:99 dilution of the 100 nM product mixture dilutions (with and without competitor) described in Example 3. […] The cellular uptake was determined from the activity in the lysed fraction. The unspecific uptake was determined from the cellular uptake of the cells incubated with the ligand in presence of the competitor. […]"}, "PSMA": {"biological_target": "T1, PSMA (Homo sapiens, UniProt Q04609)", "T1 construct": "endogenous in cells; host or cells: LNCaP cells", "T1 sequence (Q04609 whole entry)": "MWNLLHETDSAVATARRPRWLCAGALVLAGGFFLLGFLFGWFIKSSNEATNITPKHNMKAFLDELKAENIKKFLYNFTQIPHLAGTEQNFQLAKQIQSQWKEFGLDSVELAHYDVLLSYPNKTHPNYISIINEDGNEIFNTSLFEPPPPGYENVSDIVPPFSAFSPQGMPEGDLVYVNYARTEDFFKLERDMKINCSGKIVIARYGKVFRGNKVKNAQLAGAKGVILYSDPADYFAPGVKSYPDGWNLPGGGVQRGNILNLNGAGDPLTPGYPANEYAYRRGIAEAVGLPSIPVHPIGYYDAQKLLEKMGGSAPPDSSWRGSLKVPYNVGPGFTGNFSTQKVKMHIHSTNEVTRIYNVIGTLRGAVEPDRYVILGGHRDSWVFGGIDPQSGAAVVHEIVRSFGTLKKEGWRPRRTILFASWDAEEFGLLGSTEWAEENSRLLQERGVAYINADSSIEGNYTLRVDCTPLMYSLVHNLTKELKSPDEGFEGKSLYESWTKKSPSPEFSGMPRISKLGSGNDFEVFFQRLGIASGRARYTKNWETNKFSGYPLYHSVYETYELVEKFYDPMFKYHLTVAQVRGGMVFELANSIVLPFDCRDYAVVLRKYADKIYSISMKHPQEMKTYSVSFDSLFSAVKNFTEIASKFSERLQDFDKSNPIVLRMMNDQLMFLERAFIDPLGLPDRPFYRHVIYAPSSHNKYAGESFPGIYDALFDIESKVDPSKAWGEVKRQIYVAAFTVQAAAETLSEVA", "test": "Competitive binding experiments on LNCaP cells (competitor 2-PMPA), Ki by Cheng-Prusoff", "conditions": "1 h, calculated from IC50 with cheng-prusoff equation, values printed in parentheses", "method": "as §1\nFor determination of Ki, competitive binding experiments were conducted. […] The cellular uptake was determined from the activity in the lysed fraction."}}, "data": [{"substance": "^99mTc-EDDA-HYNIC-iPSMA [[^99mTc]TLX-598]", "values": [{"measurement": "Specific uptake", "setting": "LNCaP cells; 1 h, unspecific uptake subtracted from cellular uptake", "value": "18.7 ± 0.3", "unit": "% AD/10^6 cells"}, {"measurement": "Unspecific uptake", "setting": "LNCaP cells; 1 h incubation, in presence of 10000 fold excess 2-PMPA", "value": "1.64 ± 0.07", "unit": "% AD/10^6 cells"}, {"measurement": "Uptake", "setting": "LNCaP cells; 1 h incubation, triplicate", "value": "20.3 ± 0.3", "unit": "% AD/10^6 cells"}, {"measurement": "Ki", "setting": "PSMA", "value": 38, "unit": "nM"}]}]}
